Data taken from patent US4676822A, “Fluid fertilizers containing thiophosphoryl triamide” (Tennessee Valley Authority, priority 1986, dated 1987).
Several values for one entry are separate records, joined by “and”; a condition that tells them apart may be missing. Identical values can stand only once.

Tests used:
[1] = Stability of TPTA in UAN (31-0-0) at 25° C. (HPLC); type: physicochemical; settings: for % original TPTA remaining: UAN (31-0-0)
Experimental: A sample containing 1 weight percent TPTA was prepared by dissolving 1 g of TPTA in 99 g of 31-0-0 having the composition given in Table I, supra, and an initial pH of 8.1. The sample was maintained at room temperature (25° C.) and analyzed periodically for TPTA by HPLC. The results of the kinetic study are given in Table V infra and as noted supra plotted in FIG. 4 along with the first-order rate equation (solid line in FIG. 4) which was determined by linear regression.

urease [2] = test: Urease inhibition tests with TPTA and PPDA in fluid fertilizers, banded soil system (urease-active Hastings silt loam); type: biochemical; settings: for average % urea unhydrolyzed, 3 days / % urea unhydrolyzed, 3 days: 3 days incubation at 25° C.; for average % urea unhydrolyzed, 3 days / average % urea unhydrolyzed, 6 days: average of A and B samples; for % urea unhydrolyzed, 3 days / % urea unhydrolyzed, 6 days: single sample; for average % urea unhydrolyzed, 6 days / % urea unhydrolyzed, 6 days: 6 days incubation at 25° C.
Experimental: Samples of UAN (31-0-0), 1 g, and (36-0-0), 0.66 g containing approximately 0.38 g urea and 0.041 g of TPTA were prepared by dissolving solid TPTA in 31-0-0 and 36-0-0 of the compositions shown in Table I, supra. Identical samples containing PPDA and without either inhibitor were prepared to serve as references for purposes of data comparison.
Urease-active soil (Hastings silt loam) was moistened to a moisture content of 20 percent and preincubated at room temperature for two days. Plexiglass containers (6×6×6 cm) were one-half filled with soil and packed to a bulk density of 1.0 g/cm^3. The 31-0-0 and 36-0-0 samples containing TPTA and PPDA as well as samples containing no inhibitor were distributed evenly in a narrow band 6 cm along the soil surface. The containers were filled with soil and again packed to a bulk density of 1.0 g/cm^3. The containers were incubated at 25° C. for the desired reaction period. After incubation the soil from each container was thoroughly mixed, and a 10-g sample was extracted with 100 mL of 2M KCl containing 5 ppm phenylmercuric acetate to prevent urea hydrolysis during handling [L. A. Douglass and J. M. Bremner, Soil Sci. Soc. Am. Proc. 34, 859-862 (1970)]. The urea in the extracts was determined colorimetrically as a measure of unhydrolyzed urea. The results of three-day and six-day incubation tests are illustrated in Table II infra; and as noted supra, plotted in FIG. 1.

[3] = Stability of TPTA in UAN (36-0-0) at 25° C. (HPLC); type: physicochemical; settings: for % original TPTA remaining: UAN (36-0-0)
Experimental: A sample containing 1 weight percent TPTA was prepared by dissolving 1 g of TPTA in 99 g of 36-0-0 having the composition given in Table I, supra, and an initial pH of 7.4. The sample was maintained at room temperature (25° C.) and analyzed periodically for TPTA by HPLC.
The results of this kinetic study are given in Table V supra, and as noted supra, plotted in FIG. 4 along with the first-order rate equation (solid line in FIG. 4) which was determined by linear regression.

[4] = compared with PPDA; cited from earlier work
[5] = Stability of TPTA in 40 wt % urea solution (HPLC); type: physicochemical; settings: 25° C.; for % original TPTA remaining: 40 wt % urea solution
Experimental: A 40 weight percent urea solution (initial pH=8.5) was prepared by dissolving 80 g of urea in 120 g of water. A sample containing 1 weight percent TPTA was prepared by dissolving 1 g of TPTA in 99 g of the 40 weight percent urea solution. The sample was maintained at room temperature (25° C.) and analyzed periodically for TPTA by HPLC. The results of this kinetic study are given in Table IV infra and as noted supra plotted in FIG. 3 along with the first-order rate equation (solid line FIG. 3) which was determined by linear regression.

urease [6] = settings: prior art; cited from earlier work
[7] = 25° C., water partial pressure 12.73 mm of Hg; cited from earlier work

## NP(N)(N)=S [TPTA, thiophosphoryl triamide]
[1]; 1 wt % TPTA, initial pH 8.1, first-order
  reaction half-life in the 31-0-0 solution: 93 days
[1]; time 0.00 days
  % original TPTA remaining: 100.00%
[1]; time 1.22 days
  % original TPTA remaining: 100.00%
[1]; time 5.22 days
  % original TPTA remaining: 97.60%
[1]; time 7.13 days
  % original TPTA remaining: 100.00%
[1]; time 9.09 days
  % original TPTA remaining: 99.55%
[1]; time 12.07 days
  % original TPTA remaining: 101.78%
[1]; time 14.22 days
  % original TPTA remaining: 100.47%
[1]; time 16.01 days, 23054.4 min
  % original TPTA remaining: 95.59% and 95.43%
[1]; time 20.05 days
  % original TPTA remaining: 89.05%
[1]; time 26.05 days
  % original TPTA remaining: 95.55%
[1]; time 40.17 days
  % original TPTA remaining: 79.49%
[1]; time 47.14 days
  % original TPTA remaining: 79.62%
[1]; time 61.08 days
  % original TPTA remaining: 74.35%
[1]; time 64.99 days
  % original TPTA remaining: 63.03%
[1]; time 71.70 days
  % original TPTA remaining: 68.55%
[1]; time 82.71 days, 119102 min
  % original TPTA remaining: 43.85%
[1]; time 90.71 days, 130622 min
  % original TPTA remaining: 52.17%
[1]; time 96.75 days
  % original TPTA remaining: 51.55%
[1]; time 103.71 days
  % original TPTA remaining: 52.04%
[1]; time 111.71 days
  % original TPTA remaining: 47.46%
Urease [2]; UAN (31-0-0)
  average % urea unhydrolyzed, 3 days: 97.90%
  % urea unhydrolyzed, 3 days: 101.90% and 93.89%
  average % urea unhydrolyzed, 6 days: 48.48%
  % urea unhydrolyzed, 6 days: 47.75% and 49.21%
Urease [2]; UAN (36-0-0)
  average % urea unhydrolyzed, 3 days: 88% and 87.63%
  % urea unhydrolyzed, 3 days: 91.03% and 84.24%
  average % urea unhydrolyzed, 6 days: 47.82% and 48%
  % urea unhydrolyzed, 6 days: 44.37% and 51.28%
Urease [2]; after six days
  amount of unhydrolyzed urea in the soil relative to PPDA treatment: approximately four times that of the PPDA treatment
[3]; 1 wt % TPTA, initial pH 7.4, first-order
  reaction half-life in the 36-0-0 solution: 43 days
[3]; time 0.00 days
  % original TPTA remaining: 100.00%
[3]; time 1.22 days
  % original TPTA remaining: 100.00%
[3]; time 5.22 days
  % original TPTA remaining: 93.60%
[3]; time 7.13 days
  % original TPTA remaining: 97.15%
[3]; time 9.09 days
  % original TPTA remaining: 81.12%
[3]; time 12.07 days
  % original TPTA remaining: 82.21%
[3]; time 14.22 days
  % original TPTA remaining: 84.30%
[3]; time 16.01 days, 23054.4 min
  % original TPTA remaining: 79.90% and 73.86%
[3]; time 20.05 days
  % original TPTA remaining: 70.87%
[3]; time 26.05 days
  % original TPTA remaining: 72.43%
[3]; time 40.17 days
  % original TPTA remaining: 43.14%
[3]; time 47.14 days
  % original TPTA remaining: 42.94%
[3]; time 61.08 days
  % original TPTA remaining: 32.25%
[3]; time 64.99 days
  % original TPTA remaining: 41.41%
[3]; time 71.70 days
  % original TPTA remaining: 31.14%
[3]; time 82.71 days, 119102 min
  % original TPTA remaining: 29.60%
[3]; time 90.71 days, 130622 min
  % original TPTA remaining: 20.67%
[3]; time 96.75 days
  % original TPTA remaining: 25.07%
[3]; time 103.71 days
  % original TPTA remaining: 21.73%
[3]; time 111.71 days
  % original TPTA remaining: 13.09%
[4]
  stability in urea melt: substantially more stable in urea melt than PPDA
[5]; 1 wt % TPTA, initial pH 8.5, first-order
  reaction half-life in 40 weight percent urea solution: 168 days
[5]; time 0.00 days
  % original TPTA remaining: 100.00%
[5]; time 9.04 days
  % original TPTA remaining: 94.96%
[5]; time 9.25 days
  % original TPTA remaining: 94.83%
[5]; time 10.21 days
  % original TPTA remaining: 93.97%
[5]; time 13.05 days
  % original TPTA remaining: 94.25%
[5]; time 14.99 days
  % original TPTA remaining: 89.47%
[5]; time 17.22 days
  % original TPTA remaining: 88.78%
[5]; time 20.27 days
  % original TPTA remaining: 91.44%
[5]; time 22.12 days
  % original TPTA remaining: 87.44%
[5]; time 24.07 days
  % original TPTA remaining: 88.80%
[5]; time 29.19 days
  % original TPTA remaining: 87.81%
[5]; time 31.23 days
  % original TPTA remaining: 87.90%
[5]; time 34.23 days
  % original TPTA remaining: 88.52%
[5]; time 36.03 days
  % original TPTA remaining: 86.26%
[5]; time 38.19 days
  % original TPTA remaining: 91.36%
[5]; time 41.19 days
  % original TPTA remaining: 88.11%
[5]; time 43.10 days
  % original TPTA remaining: 78.25%
[5]; time 45.07 days
  % original TPTA remaining: 79.73%
[5]; time 48.04 days
  % original TPTA remaining: 76.59%
[5]; time 50.20 days
  % original TPTA remaining: 78.68%
[5]; time 52.00 days, 74880 min
  % original TPTA remaining: 76.66% and 76.56%
[5]; time 56.04 days
  % original TPTA remaining: 76.52%
[5]; time 62.02 days
  % original TPTA remaining: 76.02%
[5]; time 76.14 days, 109642 min
  % original TPTA remaining: 76.78%
[5]; time 83.11 days, 119678 min
  % original TPTA remaining: 70.05%
[5]; time 97.06 days, 139766 min
  % original TPTA remaining: 65.19%
Urease [6]
  urease inhibition (in words): comparable and in some cases more effective than PPDA
[7]
  reaction half-life in solid mixtures with urea: 1.6 days
